Data reported in PubChem BioAssay AID2202555 (NIEHS Division of Translational Toxicology (DTT)).
Records with an inconclusive call do not appear. The source made the active and inactive calls. No rule for the calls is given here.

System: rat and mouse 2-year carcinogenicity bioassay, tumor evidence
Assay: Consolidated carcinogenicity assay summary data
Source text: Cancer Evaluation Criteria
The National Toxicology Program describes the results of individual experiments on a chemical agent and notes the strength of the evidence for conclusions regarding each study. […] Other organizations, such as the International Agency for Research on Cancer, assign a strength of evidence for conclusions based on an examination of all available evidence, including animal studies such as those conducted by the NTP, epidemiologic studies, and estimates of exposure. Thus, the actual determination of risk to humans from chemicals found to be carcinogenic in laboratory animals requires a wider analysis that extends beyond the purview of these studies.
Five categories of evidence of carcinogenic activity are used in the Technical Report series to summarize the strength of evidence observed in each experiment: two categories for positive results (clear evidence and some evidence); one category for uncertain findings (equivocal evidence); one category for no observable effects (no evidence); and one category for experiments that cannot be evaluated because of major flaws (inadequate study). These categories of interpretative conclusions were first adopted in June 1983 and then revised on March 1986 for use in the Technical Report series to incorporate more specifically the concept of actual weight of evidence of carcinogenic activity. For each separate experiment (male rats, female rats, male mice, female mice), one of the following five categories is selected to describe the findings. These categories refer to the strength of the experimental evidence and not to potency or mechanism.
For studies showing multiple chemical-related neoplastic effects that if considered individually would be assigned to different levels of evidence categories, the following convention has been adopted to convey completely the study results. In a study with clear evidence of carcinogenic activity at some tissue sites, other responses that alone might be deemed some evidence are indicated as "were also related" to chemical exposure. In studies with clear or some evidence of carcinogenic activity, other responses that alone might be termed equivocal evidence are indicated as "may have been" related to chemical exposure.
When a conclusion statement for a particular experiment is selected, consideration must be given to key factors that would extend the actual boundary of an individual category of evidence. Such consideration should allow for incorporation of scientific experience and current understanding of long-term carcinogenesis studies in laboratory animals, especially for those evaluations that may be on the borderline between two adjacent levels. These considerations should include:
- adequacy of the experimental design and conduct;
- occurrence of common versus uncommon neoplasia;
- progression (or lack thereof) from benign to malignant neoplasia as well as from preneoplastic to neoplastic lesions;
- some benign neoplasms have the capacity to regress but others (of the same morphologic type) progress. At present, it is impossible to identify the difference. Therefore, where progression is known to be a possibility, the most prudent course is to assume that benign neoplasms of those types have the potential to become malignant;
- combining benign and malignant tumor incidences known or thought to represent stages of progression in the same organ or tissue;
- latency in tumor induction;
- multiplicity in site -specific neoplasia;
- supporting information from proliferative lesions (hyperplasia) in the same site of neoplasia or in other experiments (same lesion in another sex or species);
- presence or absence of dose relationships;
- statistical significance of the observed tumor increase;
- concurrent control tumor incidence as well as the historical control rate and variability for a specific neoplasm;
- survival-adjusted analyses and false positive or false negative concerns;
- structure-activity correlations; and
[…]

SMILES: NCCCCCCCCCCC(=O)O
- carcinogen call (Route (rodents): Dosed feed): active; clear evidence

SMILES: Nc1ccc(Oc2ccc(N)cc2)cc1
- carcinogen call (Route (rodents): Dosed feed): active; clear evidence

SMILES: CCCl
- carcinogen call (Route (rodents): Inhalation): active; equivocal evidence

SMILES: O=C(O)C1C(C(=O)O)C2(Cl)C(Cl)=C(Cl)C1(Cl)C2(Cl)Cl (stereo unspecified)
- carcinogen call (Route (rodents): Dosed feed): active; clear evidence

SMILES: CCCN(CCC)S(=O)(=O)c1ccc(C(=O)O)cc1
- carcinogen call (Route (rodents): Gavage): active; no evidence

SMILES: COc1ccc(N)c(C)c1
- carcinogen call (Route (rodents): Gavage): active; clear evidence

SMILES: CCc1ccccc1
- carcinogen call (Route (rodents): Inhalation): active; clear evidence

SMILES: NC=O
- carcinogen call (Route (rodents): Gavage): active; no evidence

SMILES: CC1(C)COC1=O
- carcinogen call (Route (rodents): Gavage): active; clear evidence

SMILES: C=C(C)CCl
- carcinogen call (Route (rodents): Gavage): active; clear evidence

SMILES: C=CC=C
- carcinogen call (Route (rodents): Inhalation): active

SMILES: CC(=O)C(C)=O
- carcinogen call (Route (rodents): Inhalation): active; some evidence

SMILES: OCCN(CCO)CCO
- carcinogen call (Route (rodents): Topical): active; equivocal evidence

SMILES: Cc1ccccc1[N+](=O)[O-]
- carcinogen call (Route (rodents): Dosed feed): active; clear evidence

SMILES: CN(C)c1ccc(C(c2ccccc2)c2ccc(N(C)C)cc2)cc1
- carcinogen call (Route (rodents): Dosed feed): active; equivocal evidence

SMILES: Nc1ccc2c(c1)C(=O)c1ccccc1C2=O
- carcinogen call (Route (rodents): Dosed feed): active; clear evidence

SMILES: O=C(O)C(Cl)(Cl)Br
- carcinogen call (Route (rodents): Dosed water): active; clear evidence

SMILES: CCCN(CCC)c1c([N+](=O)[O-])cc(C(F)(F)F)cc1[N+](=O)[O-]
- carcinogen call (Route (rodents): Dosed feed): active; no evidence

SMILES: Cc1cccnc1
- carcinogen call (Route (rodents): Dosed water): active; no evidence

SMILES: O=C(c1ccccc1)c1ccccc1
- carcinogen call (Route (rodents): Dosed feed): active; some evidence

SMILES: CCCBr
- carcinogen call (Route (rodents): Inhalation): active; some evidence

SMILES: OCc1c[nH]c2ccccc12
- carcinogen call (Route (rodents): Gavage): active; no evidence

SMILES: CC(=O)CC(C)C
- carcinogen call (Route (rodents): Inhalation): active; some evidence

SMILES: Nc1ccc(O)c([N+](=O)[O-])c1
- carcinogen call (Route (rodents): Dosed feed): active; clear evidence

SMILES: O=[N+]([O-])c1ccc2nc[nH]c2c1
- carcinogen call (Route (rodents): Dosed feed): active; no evidence

SMILES: CCBr
- carcinogen call (Route (rodents): Inhalation): active; some evidence

SMILES: O=C1C2(Cl)C3(Cl)C4(Cl)C(Cl)(Cl)C5(Cl)C3(Cl)C1(Cl)C5(Cl)C24Cl (stereo unspecified)
- carcinogen call (Route (rodents): Dosed feed): active; clear evidence

SMILES: CC(=O)OCc1ccccc1
- carcinogen call (Route (rodents): Gavage, Second Route: Dosed Feed): active; equivocal evidence

SMILES: C=C(Cl)Cl
- carcinogen call (Route (rodents): Inhalation, Second Route: Gavage): active; clear evidence

SMILES: O=C(O)c1cc(N=Nc2ccc(S(=O)(=O)Nc3ccccn3)cc2)ccc1O
- carcinogen call (Route (rodents): Gavage): active; some evidence

SMILES: C1CCOC1
- carcinogen call (Route (rodents): Inhalation): active; some evidence

SMILES: Nc1cc(Cl)cc(C(=O)O)c1Cl
- carcinogen call (Route (rodents): Dosed feed): active; no evidence

SMILES: Cc1cc(-c2ccc(N)c(C)c2)ccc1N
- carcinogen call (Route (rodents): Dosed water): active; clear evidence

SMILES: CN(C)C(=O)Nc1ccc(Cl)cc1
- carcinogen call (Route (rodents): Dosed feed): active; clear evidence

SMILES: C=C(C)c1ccccc1
- carcinogen call (Route (rodents): Inhalation): active; some evidence

SMILES: COc1cc(-c2ccc(N)c(OC)c2)ccc1N
- carcinogen call (Route (rodents): Dosed water): active; clear evidence

SMILES: O=[N+]([O-])c1ccc(Oc2ccc(Cl)cc2Cl)cc1
- carcinogen call (Route (rodents): Dosed feed): active; no evidence

SMILES: C=C1C/C(=C/C)C(=O)O[C@@H]2CCN3CC=C(COC(=O)[C@@]1(O)CO)[C@H]23
- carcinogen call (Route (rodents): Gavage): active; clear evidence

SMILES: C=C(C)[C@H]1CC=C(C)CC1
- carcinogen call (Route (rodents): Gavage): active; clear evidence

SMILES: O=C1c2ccccc2C(=O)c2ccccc21
- carcinogen call (Route (rodents): Dosed feed): active; some evidence

SMILES: COc1c2occc2cc2ccc(=O)oc12
- carcinogen call (Route (rodents): Gavage): active; clear evidence

SMILES: c1ccc(NNc2ccccc2)cc1
- carcinogen call (Route (rodents): Dosed feed): active; clear evidence

SMILES: CC(Cl)CCl (stereo unspecified)
- carcinogen call (Route (rodents): Gavage): active; no evidence

SMILES: ClCC(Cl)Cl
- carcinogen call (Route (rodents): Gavage): active; no evidence

SMILES: Clc1ccc(Cl)cc1
- carcinogen call (Route (rodents): Gavage): active; clear evidence

SMILES: c1ccc2ccccc2c1
- carcinogen call (Route (rodents): Inhalation): active; clear evidence

SMILES: CC(O)COC(C)(C)C (stereo unspecified)
- carcinogen call (Route (rodents): Inhalation): active; equivocal evidence

SMILES: CCCCC(CC)COC(=O)CCCCC(=O)OCC(CC)CCCC (stereo unspecified)
- carcinogen call (Route (rodents): Dosed feed): active; no evidence

SMILES: Nc1ccc(Cc2ccc(N)cc2)cc1
- carcinogen call (Route (rodents): Dosed water): active; clear evidence

SMILES: Nc1ccc(N)c2c1C(=O)c1c(N)ccc(N)c1C2=O
- carcinogen call (Route (rodents): Dosed feed): active; clear evidence

SMILES: C[N+](=O)[O-]
- carcinogen call (Route (rodents): Inhalation): active; no evidence
